Results: patent US20110136897A1, “TOLL-LIKE RECEPTOR 9 AGONISTS FOR THE TREATMENT OF ANXIETY-RELATED DISORDERS AND INFLAMMATORY DISORDERS” (YISSUM RESEARCH DEVELOPMENT COMPANY OF THE HEBREW …, priority 2008, published 2011)
“Also recorded” adds a separate entry of the source.

Assays:
[1] = tested on: RAW264.7 cells; assay: Nitric oxide (NO) production, Griess reaction; type: cell-based, mouse; conditions: 24 hours
Description: The mouse macrophage cell line RAW 264.7 (ATCC, Bethesda, Md.) was cultured in Dulbecco's modified Eagle's medium (DMEM) (Biological Industries) supplemented with 10% heat-inactivated fetal bovine serum (Biological Industries, Israel), 100 μg/ml streptomycin, 100 U/ml penicillin (Sigma) and 2 mM 1-glutamine (Biological Industries) at 37° C. in a humidified atmosphere with 5% CO2.
Determination of nitric oxide (NO) production: Nitrite concentration in the medium of cultured cells was measured as an indicator of NO production according to the Griess reaction. 1×10^5 mouse RAW264.7 cells were grown in 0.5 ml medium in 48-wells plate until 80% confluence was obtained. […] (1% sulfanilamide, 0.1% naphthylethylenediamine dihydrochloride, 5% H3PO4). Absorbance was read at 540 nm after 10 min using SPECTRAFluor Plus spectrophotometer (TECAN, UK).
To further characterize the TLR9 activating features of mEN101, mEN101 was applied to RAW264.7 cells (n=4 repeats) for 24 hours and the subsequent production of inflammatory markers was quantified. […] Addition of chloroquine (CQ), a weak base that perturbs endosomal pH and thus disturbs endosomal maturation, as well as the specific TLR9 inhibiting oligonucleotides ODN2088 and ODN TTAGGG (17), all blocked the 10 μM mEN101-driven increases in NO (p<0.015) (FIG. 2A). Thus, both gain and loss of function tests validated the nature of mEN101 as an endosomally active TLR9 activator, albeit a weak one.

[2] = tested on: FVB/N mice; assay: Predator (cat) odor stress paradigm, elevated plus maze (EPM) and acoustic startle response (ASR) one week post-exposure; type: in vivo, mouse
Description: Animals: FVB/N or adult TLR9 −/− mice and strain-matched wild type C57/B6J mice were housed four per cage, with constant temperature (21±1° C.), a 12 hour light/dark cycle, free access to food and water and habituation to the housing conditions by daily handling. Experiments were performed 1 week after arrival in the animal facility.
Behavioral paradigms: Mice were placed for 10 minutes on well-soiled cat litter (in use by the cat for 2 days, sifted for stools). One week after exposure, animals were tested according to Cohen et al. (2005) Biol Psychiatry 58, 640 in the elevated plus maze (EPM) and the acoustic startle response (ASR) paradigms. The EPM is a plus-shaped platform with two opposing open arms and two opposing closed arms (surrounded by 14-cm high opaque walls on three sides). Mice were placed on the central platform and were allowed to explore the maze for 5 min. […]
Startle response was measured using two ventilated startle chambers (SR-LAB System, San Diego Instruments, San Diego, Calif.). Each Plexiglas cylinder rests on a platform inside a sound-attenuated, ventilated chamber. Startle sessions started with a 5-minute acclimatization period to a background of 68 dB white noise, followed by 30 acoustic startle stimuli (110 dB white noise of 40 ms duration with 30 s or 45 s inter-trial interval). Startle amplitude was averaged over all 30 trials, and percent habituation was calculated as the percent difference between the response to the first block of stimuli and to the last one.
Animals were randomly divided into 5 groups. The following daily treatments initiated immediately before stressor exposure and for a total of four consecutive days: saline, 50 μg/kg ODN1826, 50 μg/kg mEN101, 50 μg/kg μg mEN101 and 500 μg/kg μg ODN2088. Oligonucleotides were delivered in 300 μl 0.9% NaCl solution (Teva, Israel). A control group was exposed to fresh, unused litter. Animals were sacrificed and brains dissected on day 1 2 h after the stressor, on day 4 2 h after the last injection, or on day 7 2 h after the behavioral tests, as noted.
To challenge the hypothesis that TLR9 activation modulates psychological stress reactions, mice were exposed to the predator odor stress paradigm (Cohen, H., Zohar, J., Matar, M. A., Kaplan, Z. & Geva, A. B. (2005) Biol Psychiatry 58, 640-50) and treated them with TLR9 activating or blocking oligonucleotides and with a known stress-suppressing oligonucleotide, mEN101. One week post-exposure, treated mice were tested for avoidance behavior and hyper-arousal in the elevated plus maze (EPM) and acoustic startle response (ASR) tests, respectively (FIG. 1B). […] They also presented greater startle amplitude (F5,103=10.75, p<0.0001; p<0.0001) and decreased startle habituation ([…]; p<0.0001) than control mice (FIG. 1C). The traumatic experience conferred varied impacts in the exposed mice, ranging from drastically maladaptive behavior to generally unmodified response patterns.

Substance: 5′-TCCATGACGTTCCTGACGTT-3′ [ODN1826, reference compound]
- concentration reaching saturation levels of NO production [1]: 100 nM
- lowest concentration inducing massive NO production [1]: 10 nM
- anxiety index (AI) ([2]; 50 μg/kg (high dose for ODN1826), compared to saline injected stressed mice): significantly increased AI
- stress-induced anxiety scores (EPM score, startle response, habituation to startle) ([2]; 50 μg/kg i.p. daily for 4 consecutive days, tested day 7, compared to saline-treated stressed mice): increased stress-induced anxiety scores; also recorded: slightly anxiogenic behavior
